# Legend:
# Assay in all cases: KINOMEscan
# Format in all cases: binding
# Details in all cases: 1.0 µM
# [1] = biological target: T1, WNK1 (Homo sapiens, UniProt Q9H4A3)
# T1 construct: DNA tag (qPCR barcode); purchased Eurofins/DiscoverX KINOMEscan scanMAX
# Method: (§1) Kinase retention to the immobilized ligand is then measured using quantitative real-time PCR for each kinase-specific DNA barcode.
# [2] = biological target: T2, NEK3 (Homo sapiens, UniProt P51956)
# T2 construct: purchased Eurofins/DiscoverX KINOMEscan scanMAX
# Method: as §1
# [3] = biological target: T3, MAP3K4 (Homo sapiens, UniProt Q9Y6R4)
# T3 construct: purchased Eurofins/DiscoverX KINOMEscan scanMAX
# Method: as §1
# [4] = biological target: T4, BRAF(V600E) (Homo sapiens, UniProt P15056, V600E)
# T4 construct: purchased Eurofins/DiscoverX KINOMEscan scanMAX
# Method: as §1
# [5] = biological target: T5, TGFBR1 (Homo sapiens, UniProt P36897)
# T5 construct: purchased Eurofins/DiscoverX KINOMEscan scanMAX
# Method: as §1
# [6] = biological target: T6, CDK4-cyclinD1 (Homo sapiens, UniProt P11802)
# T6 construct: purchased Eurofins/DiscoverX KINOMEscan scanMAX
# Method: as §1
# [7] = biological target: T7, SgK110 (Homo sapiens, UniProt P0C264)
# T7 construct: purchased Eurofins/DiscoverX KINOMEscan scanMAX
# Method: as §1
# [8] = biological target: T8, PIK3CA(M1043I) (Homo sapiens, UniProt P42336, M1043I)
# T8 construct: purchased Eurofins/DiscoverX KINOMEscan scanMAX
# Method: as §1
# [9] = biological target: T9, MET(M1250T) (Homo sapiens, UniProt P08581, M1250T)
# T9 construct: purchased Eurofins/DiscoverX KINOMEscan scanMAX
# Method: as §1
# [10] = biological target: T10, PIKFYVE (Homo sapiens, UniProt Q9Y2I7)
# T10 construct: purchased Eurofins/DiscoverX KINOMEscan scanMAX
# Method: as §1
# [11] = biological target: T11, CAMK1D (Homo sapiens, UniProt Q8IU85)
# T11 construct: purchased Eurofins/DiscoverX KINOMEscan scanMAX
# Method: as §1
# [12] = biological target: T12, LRRK2 (Homo sapiens, UniProt Q5S007)
# T12 construct: purchased Eurofins/DiscoverX KINOMEscan scanMAX
# Method: as §1
# [13] = biological target: T13, CSNK2A1 (Homo sapiens, UniProt P68400)
# T13 construct: purchased Eurofins/DiscoverX KINOMEscan scanMAX
# Method: as §1
# [14] = biological target: T14, DLK (Homo sapiens, UniProt Q12852)
# T14 construct: purchased Eurofins/DiscoverX KINOMEscan scanMAX
# Method: as §1
# [15] = biological target: T15, RSK1(Kin.Dom.2-C-terminal) (Homo sapiens, UniProt Q15418)
# T15 construct: RSK1(Kin.Dom.2-C-terminal); purchased Eurofins/DiscoverX KINOMEscan scanMAX
# Method: as §1
# [16] = biological target: T16, MEK6 (Homo sapiens, UniProt P52564)
# T16 construct: purchased Eurofins/DiscoverX KINOMEscan scanMAX
# Method: as §1
# [17] = biological target: T17, ABL1(T315I)-nonphosphorylated (Homo sapiens, UniProt P00519, T315I)
# T17 construct: purchased Eurofins/DiscoverX KINOMEscan scanMAX
# Method: as §1
# [18] = biological target: T18, INSRR (Homo sapiens, UniProt P14616)
# T18 construct: purchased Eurofins/DiscoverX KINOMEscan scanMAX
# Method: as §1
# [19] = biological target: T19, CAMKK1 (Homo sapiens, UniProt Q8N5S9)
# T19 construct: purchased Eurofins/DiscoverX KINOMEscan scanMAX
# Method: as §1
# [20] = biological target: T20, ABL1(E255K)-phosphorylated (Homo sapiens, UniProt P00519, E255K)
# T20 construct: purchased Eurofins/DiscoverX KINOMEscan scanMAX
# Method: as §1
# [21] = biological target: T21, KIT(A829P) (Homo sapiens, UniProt P10721, A829P)
# T21 construct: purchased Eurofins/DiscoverX KINOMEscan scanMAX
# Method: as §1
# [22] = biological target: T22, FGFR3(G697C) (Homo sapiens, UniProt P22607, G697C)
# T22 construct: purchased Eurofins/DiscoverX KINOMEscan scanMAX
# Method: as §1
# [23] = biological target: T23, PIP5K2C (Homo sapiens, UniProt Q8TBX8)
# T23 construct: purchased Eurofins/DiscoverX KINOMEscan scanMAX
# Method: as §1
# [24] = biological target: T24, CSNK1G2 (Homo sapiens, UniProt P78368)
# T24 construct: purchased Eurofins/DiscoverX KINOMEscan scanMAX
# Method: as §1
# [25] = biological target: T25, PDGFRB (Homo sapiens, UniProt P09619)
# T25 construct: purchased Eurofins/DiscoverX KINOMEscan scanMAX
# Method: as §1
# [26] = biological target: T26, ABL1(F317I)-phosphorylated (Homo sapiens, UniProt P00519, F317I)
# T26 construct: purchased Eurofins/DiscoverX KINOMEscan scanMAX
# Method: as §1
# [27] = biological target: T27, TYK2(JH1domain-catalytic) (Homo sapiens, UniProt P29597)
# T27 construct: TYK2(JH1domain-catalytic); DNA tag (qPCR barcode); purchased Eurofins/DiscoverX KINOMEscan scanMAX
# Method: as §1
# [28] = biological target: T28, YANK1 (Homo sapiens, UniProt Q8WU08)
# T28 construct: DNA tag (qPCR barcode); purchased Eurofins/DiscoverX KINOMEscan scanMAX
# Method: as §1
# [29] = biological target: T29, TEC (Homo sapiens, UniProt P42680)
# T29 construct: purchased Eurofins/DiscoverX KINOMEscan scanMAX
# Method: as §1
# [30] = biological target: T30, NEK6 (Homo sapiens, UniProt Q9HC98)
# T30 construct: purchased Eurofins/DiscoverX KINOMEscan scanMAX
# Method: as §1
# [31] = biological target: T31, PRKX (Homo sapiens, UniProt P51817)
# T31 construct: purchased Eurofins/DiscoverX KINOMEscan scanMAX
# Method: as §1
# [32] = biological target: T32, WEE2 (Homo sapiens, UniProt P0C1S8)
# T32 construct: DNA tag (qPCR barcode); purchased Eurofins/DiscoverX KINOMEscan scanMAX
# Method: as §1
# [33] = biological target: T33, PIK3CA(C420R) (Homo sapiens, UniProt P42336, C420R)
# T33 construct: purchased Eurofins/DiscoverX KINOMEscan scanMAX
# Method: as §1
# [34] = biological target: T34, ROS1 (Homo sapiens, UniProt P08922)
# T34 construct: purchased Eurofins/DiscoverX KINOMEscan scanMAX
# Method: as §1
# [35] = biological target: T35, EPHB4 (Homo sapiens, UniProt P54760)
# T35 construct: purchased Eurofins/DiscoverX KINOMEscan scanMAX
# Method: as §1
# [36] = biological target: T36, EIF2AK1 (Homo sapiens, UniProt Q9BQI3)
# T36 construct: purchased Eurofins/DiscoverX KINOMEscan scanMAX
# Method: as §1
# [37] = biological target: T37, AKT3 (Homo sapiens, UniProt Q9Y243)
# T37 construct: purchased Eurofins/DiscoverX KINOMEscan scanMAX
# Method: as §1
# [38] = biological target: T38, ACVR2B (Homo sapiens, UniProt Q13705)
# T38 construct: purchased Eurofins/DiscoverX KINOMEscan scanMAX
# Method: as §1
# [39] = biological target: T39, IRAK4 (Homo sapiens, UniProt Q9NWZ3)
# T39 construct: purchased Eurofins/DiscoverX KINOMEscan scanMAX
# Method: as §1
# [40] = biological target: T40, DYRK2 (Homo sapiens, UniProt Q92630)
# T40 construct: purchased Eurofins/DiscoverX KINOMEscan scanMAX
# Method: as §1
# T37 sequence (Q9Y243 whole entry): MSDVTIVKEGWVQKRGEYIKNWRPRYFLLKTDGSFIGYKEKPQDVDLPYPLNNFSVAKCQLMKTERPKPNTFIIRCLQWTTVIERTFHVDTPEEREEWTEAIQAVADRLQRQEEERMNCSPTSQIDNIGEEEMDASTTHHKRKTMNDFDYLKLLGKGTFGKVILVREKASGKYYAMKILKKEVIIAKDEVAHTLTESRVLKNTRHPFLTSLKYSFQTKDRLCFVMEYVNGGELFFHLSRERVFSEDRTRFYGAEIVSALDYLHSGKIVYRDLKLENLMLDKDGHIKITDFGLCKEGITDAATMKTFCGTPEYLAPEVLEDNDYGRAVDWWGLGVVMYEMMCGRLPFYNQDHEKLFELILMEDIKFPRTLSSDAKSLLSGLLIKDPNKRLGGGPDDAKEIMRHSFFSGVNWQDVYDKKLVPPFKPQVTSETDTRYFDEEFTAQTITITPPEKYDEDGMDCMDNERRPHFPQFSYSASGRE
# T8 sequence (P42336 whole entry M1043I): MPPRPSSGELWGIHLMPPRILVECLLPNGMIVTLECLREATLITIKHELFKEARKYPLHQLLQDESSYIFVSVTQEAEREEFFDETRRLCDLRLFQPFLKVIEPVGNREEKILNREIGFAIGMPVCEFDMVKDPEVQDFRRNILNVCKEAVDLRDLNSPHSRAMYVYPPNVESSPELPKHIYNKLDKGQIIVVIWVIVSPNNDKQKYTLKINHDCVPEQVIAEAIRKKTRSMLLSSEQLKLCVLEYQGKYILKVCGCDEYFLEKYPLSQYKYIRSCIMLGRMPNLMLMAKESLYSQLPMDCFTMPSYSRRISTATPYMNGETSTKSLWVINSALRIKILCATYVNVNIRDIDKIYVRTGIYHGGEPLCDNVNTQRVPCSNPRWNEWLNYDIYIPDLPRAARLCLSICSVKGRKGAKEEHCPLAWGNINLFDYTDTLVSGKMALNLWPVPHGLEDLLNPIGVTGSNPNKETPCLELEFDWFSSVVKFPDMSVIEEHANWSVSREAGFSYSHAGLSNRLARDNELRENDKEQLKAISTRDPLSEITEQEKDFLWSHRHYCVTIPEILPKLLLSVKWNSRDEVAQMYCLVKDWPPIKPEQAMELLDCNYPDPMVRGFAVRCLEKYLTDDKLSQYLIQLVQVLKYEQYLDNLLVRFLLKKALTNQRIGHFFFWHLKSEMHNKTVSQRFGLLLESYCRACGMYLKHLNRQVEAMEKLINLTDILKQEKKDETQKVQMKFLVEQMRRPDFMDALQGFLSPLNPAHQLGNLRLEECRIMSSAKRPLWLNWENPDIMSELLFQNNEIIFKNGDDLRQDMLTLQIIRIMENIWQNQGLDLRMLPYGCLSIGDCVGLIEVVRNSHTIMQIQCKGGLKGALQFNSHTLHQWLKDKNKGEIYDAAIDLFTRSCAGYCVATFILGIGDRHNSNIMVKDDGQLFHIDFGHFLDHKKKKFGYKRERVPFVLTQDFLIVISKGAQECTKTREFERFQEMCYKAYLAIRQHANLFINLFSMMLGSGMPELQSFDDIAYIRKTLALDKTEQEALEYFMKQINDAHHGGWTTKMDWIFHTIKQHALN
# T38 sequence (Q13705 19-512): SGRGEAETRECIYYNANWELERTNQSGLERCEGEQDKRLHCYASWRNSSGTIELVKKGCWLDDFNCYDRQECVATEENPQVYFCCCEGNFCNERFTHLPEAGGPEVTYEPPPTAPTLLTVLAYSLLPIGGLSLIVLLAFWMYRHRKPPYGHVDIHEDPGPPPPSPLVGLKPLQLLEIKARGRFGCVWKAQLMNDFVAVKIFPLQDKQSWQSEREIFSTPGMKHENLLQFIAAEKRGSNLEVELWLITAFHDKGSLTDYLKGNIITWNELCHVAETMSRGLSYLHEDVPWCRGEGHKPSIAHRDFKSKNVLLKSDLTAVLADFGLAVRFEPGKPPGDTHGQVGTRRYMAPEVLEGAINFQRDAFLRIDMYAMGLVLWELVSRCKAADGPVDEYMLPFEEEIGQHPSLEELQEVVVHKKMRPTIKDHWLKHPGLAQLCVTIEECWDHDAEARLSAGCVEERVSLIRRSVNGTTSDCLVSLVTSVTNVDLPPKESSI
# T27 sequence (P29597 897-1176 limits assumed): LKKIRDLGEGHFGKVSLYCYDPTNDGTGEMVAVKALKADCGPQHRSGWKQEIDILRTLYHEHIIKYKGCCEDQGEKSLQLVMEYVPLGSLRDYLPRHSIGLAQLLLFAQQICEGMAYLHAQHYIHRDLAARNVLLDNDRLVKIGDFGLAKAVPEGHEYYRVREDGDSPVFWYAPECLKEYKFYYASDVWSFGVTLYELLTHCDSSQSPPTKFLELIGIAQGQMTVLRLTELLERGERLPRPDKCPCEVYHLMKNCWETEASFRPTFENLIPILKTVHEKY
# T22 sequence (P22607 23-806 G697C): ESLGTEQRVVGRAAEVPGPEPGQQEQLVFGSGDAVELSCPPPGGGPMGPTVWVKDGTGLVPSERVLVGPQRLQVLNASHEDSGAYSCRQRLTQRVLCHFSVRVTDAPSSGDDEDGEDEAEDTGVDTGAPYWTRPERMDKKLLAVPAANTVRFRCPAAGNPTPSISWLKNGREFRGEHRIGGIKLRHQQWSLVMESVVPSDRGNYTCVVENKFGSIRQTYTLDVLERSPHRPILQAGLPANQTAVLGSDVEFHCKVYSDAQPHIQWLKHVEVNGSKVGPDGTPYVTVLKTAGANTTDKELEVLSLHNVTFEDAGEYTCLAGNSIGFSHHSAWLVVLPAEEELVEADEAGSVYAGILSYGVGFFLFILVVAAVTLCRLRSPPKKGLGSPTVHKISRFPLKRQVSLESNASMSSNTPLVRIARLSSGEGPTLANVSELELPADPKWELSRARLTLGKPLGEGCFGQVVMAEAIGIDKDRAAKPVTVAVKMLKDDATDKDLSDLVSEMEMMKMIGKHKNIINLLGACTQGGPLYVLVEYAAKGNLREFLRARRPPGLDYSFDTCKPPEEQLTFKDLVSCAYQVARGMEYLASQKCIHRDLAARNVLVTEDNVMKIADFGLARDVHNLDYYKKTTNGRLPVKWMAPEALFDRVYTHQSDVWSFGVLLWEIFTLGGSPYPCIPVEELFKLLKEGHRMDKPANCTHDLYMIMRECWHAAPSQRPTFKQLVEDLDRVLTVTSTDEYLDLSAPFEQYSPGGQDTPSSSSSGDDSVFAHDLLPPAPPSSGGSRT
# T30 sequence (Q9HC98 whole entry): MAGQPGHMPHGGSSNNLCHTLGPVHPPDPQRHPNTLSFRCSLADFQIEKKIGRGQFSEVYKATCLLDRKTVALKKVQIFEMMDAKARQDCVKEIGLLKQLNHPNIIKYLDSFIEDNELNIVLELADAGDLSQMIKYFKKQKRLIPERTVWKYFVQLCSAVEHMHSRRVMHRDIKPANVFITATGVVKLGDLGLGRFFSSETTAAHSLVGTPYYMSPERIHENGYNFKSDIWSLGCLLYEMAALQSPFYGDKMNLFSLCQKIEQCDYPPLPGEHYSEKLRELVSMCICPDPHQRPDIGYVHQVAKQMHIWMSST
# T25 sequence (P09619 33-1106): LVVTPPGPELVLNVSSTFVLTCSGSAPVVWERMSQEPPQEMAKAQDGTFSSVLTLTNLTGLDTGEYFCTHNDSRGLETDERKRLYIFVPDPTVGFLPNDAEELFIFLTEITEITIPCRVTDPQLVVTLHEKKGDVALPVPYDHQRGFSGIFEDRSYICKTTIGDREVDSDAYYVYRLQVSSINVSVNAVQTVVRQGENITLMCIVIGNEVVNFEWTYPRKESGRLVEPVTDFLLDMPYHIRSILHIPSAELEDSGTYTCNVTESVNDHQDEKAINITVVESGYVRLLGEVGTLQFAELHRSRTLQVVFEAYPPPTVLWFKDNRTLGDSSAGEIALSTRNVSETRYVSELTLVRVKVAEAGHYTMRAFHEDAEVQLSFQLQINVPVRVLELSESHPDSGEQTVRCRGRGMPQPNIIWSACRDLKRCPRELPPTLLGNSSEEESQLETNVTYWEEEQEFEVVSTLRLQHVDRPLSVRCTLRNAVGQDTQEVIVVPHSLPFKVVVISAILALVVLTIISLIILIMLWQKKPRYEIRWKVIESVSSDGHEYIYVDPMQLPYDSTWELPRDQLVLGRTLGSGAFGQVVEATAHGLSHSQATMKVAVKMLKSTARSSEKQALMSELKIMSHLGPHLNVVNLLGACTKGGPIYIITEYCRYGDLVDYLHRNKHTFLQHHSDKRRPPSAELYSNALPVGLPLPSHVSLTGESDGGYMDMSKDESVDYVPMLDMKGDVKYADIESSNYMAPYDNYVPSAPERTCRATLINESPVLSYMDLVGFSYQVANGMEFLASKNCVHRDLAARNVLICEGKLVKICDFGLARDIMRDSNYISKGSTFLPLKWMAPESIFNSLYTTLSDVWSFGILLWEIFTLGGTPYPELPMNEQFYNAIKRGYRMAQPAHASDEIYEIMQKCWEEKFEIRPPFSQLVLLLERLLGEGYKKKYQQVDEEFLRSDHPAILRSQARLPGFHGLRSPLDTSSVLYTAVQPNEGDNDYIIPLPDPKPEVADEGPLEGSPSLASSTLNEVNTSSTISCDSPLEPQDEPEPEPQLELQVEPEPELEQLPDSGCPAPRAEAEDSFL
# T31 sequence (P51817 whole entry): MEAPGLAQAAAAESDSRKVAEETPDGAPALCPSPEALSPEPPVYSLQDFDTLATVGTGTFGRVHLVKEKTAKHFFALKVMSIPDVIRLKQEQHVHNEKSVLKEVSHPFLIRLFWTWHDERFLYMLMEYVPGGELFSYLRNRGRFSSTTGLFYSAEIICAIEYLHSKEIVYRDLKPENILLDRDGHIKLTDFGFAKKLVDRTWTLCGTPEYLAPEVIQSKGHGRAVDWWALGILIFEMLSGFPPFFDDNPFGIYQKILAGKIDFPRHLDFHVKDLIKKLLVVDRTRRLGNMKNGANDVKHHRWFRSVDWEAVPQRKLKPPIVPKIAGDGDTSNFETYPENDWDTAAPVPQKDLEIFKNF
# T33 sequence (P42336 whole entry C420R): as the sequence (P42336 whole entry M1043I) above, with C420R, I1043M counted along it
smiles,measurement,setting,value
CN1CCN(C2CCC(n3cc(-c4ccc(Oc5ccccc5)cc4)c4c(N)ncnc43)CC2)CC1 (stereo not shown) [A-419259],% Control,[1],73%
same,% Control,[2],92%
same,% Control,[3],92%
same,% Control,[4],45%
same,% Control,[5],60%
same,% Control,[6],27%
same,% Control,[7],100%
same,% Control,[8],100%
same,% Control,[9],59%
same,% Control,[10],78%
same,% Control,[11],97%
same,% Control,[12],98%
same,% Control,[13],100%
same,% Control,[14],54%
same,% Control,[15],84%
same,% Control,[16],98%
same,% Control,[17],41%
same,% Control,[18],86%
same,% Control,[19],100%
same,% Control,[20],0.5%
same,% Control,[21],5.9%
same,% Control,[22],27%
same,% Control,[23],95%
same,% Control,[24],84%
same,% Control,[25],0%
same,% Control,[26],2.4%
same,% Control,[27],100%
same,% Control,[28],30%
same,% Control,[29],9%
same,% Control,[30],65%
same,% Control,[31],100%
same,% Control,[32],90%
same,% Control,[33],100%
same,% Control,[34],100%
same,% Control,[35],100%
same,% Control,[36],99%
same,% Control,[37],100%
same,% Control,[38],100%
same,% Control,[39],90%
same,% Control,[40],100%

# — article PMC6886798, “Expression of myeloid Src-family kinases is associated with poor prognosis in AML and influences Flt3-ITD kinase inhibitor acquired resistance” (PLoS ONE, 2019)
